Laboratory results published in patent US9199983B2, “3-aryl-6-aryl-[1,2,4]triazolo[4,3-α]pyridines as inhibitors of cell proliferation and the use thereof” (priority 2010, dated 2015).

Key:
[1] = tested on: caspase-3 activation; assay: Caspase-3 activation (apoptosis induction) in T-47D cells; format: cell-based; settings: Homo sapiens; T47D cells, 24 h treatment; read-out: EC50 to induce caspase-3 activation, T47D
Description: (§1) Identification of 3-(2-methoxyphenyl)-6-(4-methoxyphenyl)-[1,2,4]triazolo[4,3-a]pyridine and analogs as inducers of apoptosis in solid tumor cells
(§2) Human breast cancer cell line T-47D and lung cancer cell line A549, growing in DMEM/F12+10% FBS media were seeded to a density of 20000 cells/well in 96-well cell culture plate and grew overnight (18-24 h) in CO2 cell culture incubator at 37° C. Next day the medium were removed by aspiration and […] fresh growth media was added to each well followed by […] of growth media containing 10× concentration of reference or testing compounds with 10% DMSO. Twenty four hours later, cell culture plates were centrifuged at 1000 g for 5 min and the supernatant was removed by emptying contents into a reservoir. Fifty μl of Lysis Buffer (10 mM Tris, pH7.5, 0.1M NaCl, 1 Mm EDTA, 0.01% Triton X-100) was added to each well and the plates were incubated with gentle agitation on an orbital shaker at 4° C. for 30 min. The plates were then centrifuged at 1000 g for 10 min at 4° C. and 20 μl of the supernatant was transferred from each well to a corresponding well in a black 384-well. Twenty μl of caspase-3 assay buffer (20 mM PIPES, pH7.4, 4 Mm EDTA and 0.2% CHAPS) containing 20 μM fluorogenic caspase-3 substrate ((Ac-DEVD)2-R110, AnaSpec Cat #60304-5) was added to each well. The samples were mixed by agitation and incubated at 37° C. for 3 h. The fluorescent intensity of each well was read on a fluorescent plate reader (Varioskan Flash, Thermo Fisher Scientific) with excitation wavelength at 496 nm and emission wavelength at 520 nm. The activity of compounds on caspase-3 activation was determined by plotting the relative fluorescent unit (RFU) against the testing concentrations of the compounds. The EC50 values were determined by fitting the above responding curves into Prism sigmoidal dose-response equation (GraphPad Software, Inc).

[2] = tested on: Human lung cancer cell line A549; assay: MTT cancer cell cytotoxicity assay, A549; format: cell-based; settings: Homo sapiens, A549 cells, 48-72 h
Summary of the method: (§3)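 Seeding: HepG2 and A549 at 3000, SMMC7721 at 5000, B16F10 at 2000 cells/well, attached overnight. Compounds (10 μM to 1 nM, triplicate) were applied for 48-72 h at 37 °C, followed by 4 h MTT. A550 minus A660 was fitted for IC50, with untreated wells as maximum and reference-drug total kill as background.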

[3] = tested on: liver cancer cell line HepG2; assay: MTT cancer cell cytotoxicity assay, HepG2; format: cell-based, human; settings: Homo sapiens, HepG2 cells, 48-72 h
Summary of the method: as §3

[4] = tested on: caspase-3 activation; assay: Caspase-3 activation (apoptosis induction) in A549 cells; format: cell-based; settings: Homo sapiens, A-549 cells, 24 h treatment, read-out: EC50 to induce caspase-3 activation, A-549
Description: as §1, §2

[5] = tested on: breast cancer cell line T47D; assay: MTT cancer cell cytotoxicity assay, T47D; format: cell-based, human; settings: Homo sapiens, T47D cells, 48-72 h
Summary of the method: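 Human T47D breast cancer cells, cultured per ATCC recommendations with 10% fetal bovine serum and penicillin/streptomycin, were plated at 3000 cells/well in 96-well plates. After overnight attachment they were exposed in triplicate to compounds (10 μM to 1 nM) for 48-72 h. MTT was then added for 4 h and the formazan dissolved in DMSO. Absorbance at 550 nm minus 660 nm was fitted in Prism 5 to give IC50.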

[6] = tested on: liver cancer cell line SMMC7721; assay: MTT cancer cell cytotoxicity assay, SMMC7721; format: cell-based, human; settings: Homo sapiens, SMMC-7721, SMMC7721 cells, 48-72 h
Summary of the method: as §3

[7] = tested on: mouse melanoma cell line B16F10; assay: MTT cancer cell cytotoxicity assay, B16F10; format: cell-based; settings: Mus musculus, B16-F10, B16F10 cells, 48-72 h
Description: Identification of 3-(2-methoxyphenyl)-6-(4-methoxyphenyl)-[1,2,4]triazolo[4,3-a]pyridine and analogs as inhibitors of cell proliferation that were evaluated with standard MTT cancer cell cytotoxicity assay (IC50)
Human lung cancer cell line A549, breast cancer cell line T47D, liver cancer cell lines HepG2 and SMMC7721 as well as a mouse melanoma cell line B16F10 were used in the study. The cells were cultured in corresponding growth media recommended by American Type Culture Collection (ATCC) with the supplementation of penicillin G (100 U/ml)/streptomycin (100 µg/ml), and 10% fetal bovine serum (Hangzhou Sijiqing Biological Engineering Materials, Co., Ltd. China) at 37° C. in a humidified atmosphere containing 5% CO2. Cells at about 80% confluency were harvested by trypsinization. Cells were centrifuged, re-suspended in fresh growth media and counted. Corresponding numbers of cells were seeded to 96-well cell culture plates (HepG2 cell, T-47D and A549 cells at 3000 cells/well, SMMC-7721 cells at 5000 cells/well and B16F10 cells at 2000 cells/well) in a total volume of […]. Cells were incubated in CO2 incubator over night to allow the cells to attach. In next day, […] of medium containing testing (from 10 μM to 1 nM) or reference compounds was added to each well of the cells. Media without compound were used as 100% control. Cells were treated with each concentration of compounds in triplicates to ensure data accuracy. Cells were incubated with compounds in CO2 incubator for an additional 48-72 h at 37° C. After incubation, cells were removed from the CO2 incubator and […] of 5 mg/ml MTT (3-(4,5-dimethylthiazole-2-yl)-2,5-diphenyltetrazoliumbromide, Sigma) solution in PBS was added to each well. Cells were returned to CO2 incubator and incubated for additional 4 h. After the incubation, media were removed by aspiration and […] DMSO was added to each well. Plates were sealed with aluminum foil and shaked mildly on an orbital shaker for 10 min at room temperature. The absorption was measured at 550 nm with a plate reader (Varioskan Flash, Thermo Fisher Scientific) with 660 nm reading used as background control. The relative absorbance readings were calculated by subtracting readings at 660 nm from that at 550 nm. The relative absorbance was plotted again the concentrations of the testing compounds and the plots were fitted with a one-site lg(IC50) equation using Prism 5 software (GraphPad Software, Inc). The equation used in the curve fitting is as follows: relative absorbance reading=background reading+(maximal reading−brackground reading)/(1+10 ^(compound concentration-log IC50)). The background reading used in the calculation was obtained with 100% cell death using a reference anticancer drug, whereas the maximal reading was obtained in the well with no added compound. The IC50 value calculated from the equation represents the cytotoxic potency of a particular compound.

EC50 [1] [nM] | EC50 [4] [nM] | SMILES | IC50 [2] [nM] | IC50 [3] [nM] | IC50 [5] [nM] | IC50 [6] [nM] | IC50 [7] [nM]
20 | 5 | COc1ccc(-c2ccc3nnc(-c4ccc(Cl)cc4OC)n3c2)cc1 [Example 57, 3-(4-Chloro-2-methoxyphenyl)-6-(4-methoxyphenyl)-[1,2,4]triazolo[4,3-a]pyridine] | 3.4 | 3.4 | 4.1 | 6.7 | 1.6
76 | 93 | COc1ccc(-c2ccc3nnc(-c4ccccc4OC)n3c2)cc1C [Example 5, 6-(4-Methoxy-3-methylphenyl)-3-(2-methoxyphenyl)-[1,2,4]triazolo[4,3-a]pyridine] | 11 | 32 | 40 | 11 | 37
